Measurements published in US7262309B2, “1- or 3-thia-benzonaphthoazulenes as inhibitors of tumor necrosis factor production and intermediates for the preparation thereof” (GlaxoSmith Kline Istrazivocki Centar Zagreb, D.O.O., priority 2002, dated 2007).

Tested on: TNF-α and IL-1 secretion
Experiment: investigated assays, not specified which (TNF-α/IL-1 secretion in human PBMC and in mouse peritoneal macrophages, LPS-induced TNF-α/IL-1 secretion in mice, writhing assay, LPS-induced shock in mice)
Conditions: assays not named; active = IC-50 20 μM or lower (PBMC), 10 μM or lower (macrophages), 30% or more inhibition of TNF-α at 10 mg/kg, analgetic activity as acetylsalicylic acid or better, survival 40% or more at 30 mg/kg
Procedure: Human peripheral blood mononuclear cells (PBMC) were prepared from heparinized whole blood after separating PBMC on Ficoll-Paque™Plus (Amersham-Pharmacia). To determine the TNF-α level, 3.5-5×10^4 cells were cultivated in a total volume of 200 μl for 18 to 24 hours on microtitre plates with a flat bottom (96 wells, Falcon) in RPMI 1640 medium, into which there were added 10% FBS (Fetal Bovine Serum, Biowhittaker) previously inactivated at 54° C./30 min, 100 units/ml of penicillin, […] of streptomycin and 20 mM HEPES (GIBCO). The cells were incubated at 37° C. in an atmosphere with 5% CO2 and 90% humidity. […] The IL-1 level was determined in an assay under the same conditions and with the same number of cells and the same concentration of the stimulus by ELISA procedure (R&D Systems). The percentage of inhibition of TNF-α or IL-1 production was calculated by the equation: % inhibition=[1−(TS−NC)/(PC−NC)]*100. […]
In order to obtain peritoneal macrophages, Balb/C mouse strain males, age 8 to 12 weeks, were injected i.p. with 300 μg of zymosan (SIGMA) dissolved in a phosphate buffer (PBS) in a total volume of 0.1 ml/mouse. […] The TNF-α level in the cell supernatant was determined by ELISA procedure (R&D Systems, Biosource). The IL-1 level was determined in an assay identical to the assay for TNF-α by ELISA procedure (R&D Systems). […]

Dimethyl-[3-(11-methoxy-8-oxa-1-thia-benzo[e]naphtho[3,2-h]azulene-2-ylmethoxy)-propyl]-amine [Example 7]
activity in at least two investigated assays: show activity in at least two investigated assays
